Assay results from patent US20120270237A9, “METHODS FOR THE IDENTIFICATION OF KINASE INTERACTING MOLECULES AND FOR THE PURIFICATION OF KINASE PROTEINS” (Cellzone AG, priority 2009, published 2012).

Assays:
Assay in all cases: Kinobeads competition binding, L-363 cell lysate
Parameters in all cases: endogenous in cells; host or cells: L-363 (MG132-treated)
Conditions in all cases: 10 μM free compound, L-363 lysate
[1] = molecular target: T1, NEK3 (Homo sapiens, UniProt P51956)
T1 sequence (P51956 1-506): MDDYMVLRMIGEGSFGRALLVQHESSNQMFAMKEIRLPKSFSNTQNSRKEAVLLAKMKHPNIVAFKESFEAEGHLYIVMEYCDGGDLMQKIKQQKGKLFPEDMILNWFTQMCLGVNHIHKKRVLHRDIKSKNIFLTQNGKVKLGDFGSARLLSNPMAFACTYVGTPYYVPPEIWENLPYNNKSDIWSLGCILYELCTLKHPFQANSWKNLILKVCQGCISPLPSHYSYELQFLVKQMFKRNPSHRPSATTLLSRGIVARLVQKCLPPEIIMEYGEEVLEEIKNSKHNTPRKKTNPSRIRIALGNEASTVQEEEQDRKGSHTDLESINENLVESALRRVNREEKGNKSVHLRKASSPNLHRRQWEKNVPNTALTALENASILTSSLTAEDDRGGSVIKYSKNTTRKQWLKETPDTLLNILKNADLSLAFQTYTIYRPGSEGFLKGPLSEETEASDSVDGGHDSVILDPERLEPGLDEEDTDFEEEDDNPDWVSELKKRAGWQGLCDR
Procedure: (§1) To one aliquot of cell lysate 10 μM of the free compound (FIG. 3, CZC31326) was added and allowed to bind to proteins in the lysate. Then the affinity matrix with the immobilized compound was added to capture proteins that were not interacting with the previously added free compound. Beads were separated from the lysate and bead bound proteins were eluted in SDS sample buffer and subsequently separated by SDS-Polyacrylamide gel electrophoresis (FIG. 8). Suitable gel bands were cut out and subjected to in-gel proteolytic digestion with trypsin. The second lysate aliquot was processed identically, however no free compound was added (DMSO solvent control). Peptides originating from samples 1 and 2 were labeled with iTRAQ reagents (iTRAQ 114 and iTRAQ 117) and the combined samples were analyzed with a nano-flow liquid chromatography system coupled online to a tandem mass spectrometer (LC-MS/MS) experiment followed by iTRAQ reporter ion quantification in the MS/MS spectra as described in Example 2.
(§2) For this experiment the human plasma cell leukaemia line L-363 was used (German Collection of Microorganisms and Cell Cultures, DSMZ number ACC49, Braunschweig, Germany). Cells were treated for three hours with 20 μM of the proteasome inhibitor MG132 (Z-Leu-Leu-Leu-al, Sigma C2211) prior to cell harvesting.

[2] = molecular target: T2, NEK9 (Homo sapiens, UniProt Q8TD19)
T2 sequence (Q8TD19 1-979): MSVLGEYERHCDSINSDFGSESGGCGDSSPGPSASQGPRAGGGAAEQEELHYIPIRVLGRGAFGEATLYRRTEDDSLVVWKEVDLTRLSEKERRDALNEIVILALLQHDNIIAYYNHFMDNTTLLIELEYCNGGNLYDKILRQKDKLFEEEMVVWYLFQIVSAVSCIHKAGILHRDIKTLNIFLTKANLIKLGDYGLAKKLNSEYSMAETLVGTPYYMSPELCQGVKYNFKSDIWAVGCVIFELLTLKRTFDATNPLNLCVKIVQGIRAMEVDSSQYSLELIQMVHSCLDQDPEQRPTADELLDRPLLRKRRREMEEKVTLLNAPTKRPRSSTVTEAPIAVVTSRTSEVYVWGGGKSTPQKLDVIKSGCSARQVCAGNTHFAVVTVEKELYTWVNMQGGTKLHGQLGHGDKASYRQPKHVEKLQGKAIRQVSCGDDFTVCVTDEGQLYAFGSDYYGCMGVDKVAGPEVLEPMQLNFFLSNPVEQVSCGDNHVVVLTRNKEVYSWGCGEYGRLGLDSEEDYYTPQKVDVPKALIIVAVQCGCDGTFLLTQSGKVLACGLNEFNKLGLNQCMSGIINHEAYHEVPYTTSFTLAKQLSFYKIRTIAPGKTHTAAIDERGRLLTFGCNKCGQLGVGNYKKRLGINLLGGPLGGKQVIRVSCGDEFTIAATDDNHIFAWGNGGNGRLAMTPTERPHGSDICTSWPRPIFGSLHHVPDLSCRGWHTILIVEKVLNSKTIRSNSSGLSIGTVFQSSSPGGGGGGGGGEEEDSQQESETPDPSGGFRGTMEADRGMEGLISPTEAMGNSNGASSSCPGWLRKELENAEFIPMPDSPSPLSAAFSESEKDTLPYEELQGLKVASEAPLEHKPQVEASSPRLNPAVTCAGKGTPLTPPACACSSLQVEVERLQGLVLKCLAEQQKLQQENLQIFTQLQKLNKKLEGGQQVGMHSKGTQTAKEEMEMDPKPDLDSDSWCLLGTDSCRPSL
Procedure: as §1, §2

[3] = molecular target: PAK4 (Homo sapiens, UniProt O96013)
Procedure: as §1, §2

Chain of PAK4 (O96013 whole entry): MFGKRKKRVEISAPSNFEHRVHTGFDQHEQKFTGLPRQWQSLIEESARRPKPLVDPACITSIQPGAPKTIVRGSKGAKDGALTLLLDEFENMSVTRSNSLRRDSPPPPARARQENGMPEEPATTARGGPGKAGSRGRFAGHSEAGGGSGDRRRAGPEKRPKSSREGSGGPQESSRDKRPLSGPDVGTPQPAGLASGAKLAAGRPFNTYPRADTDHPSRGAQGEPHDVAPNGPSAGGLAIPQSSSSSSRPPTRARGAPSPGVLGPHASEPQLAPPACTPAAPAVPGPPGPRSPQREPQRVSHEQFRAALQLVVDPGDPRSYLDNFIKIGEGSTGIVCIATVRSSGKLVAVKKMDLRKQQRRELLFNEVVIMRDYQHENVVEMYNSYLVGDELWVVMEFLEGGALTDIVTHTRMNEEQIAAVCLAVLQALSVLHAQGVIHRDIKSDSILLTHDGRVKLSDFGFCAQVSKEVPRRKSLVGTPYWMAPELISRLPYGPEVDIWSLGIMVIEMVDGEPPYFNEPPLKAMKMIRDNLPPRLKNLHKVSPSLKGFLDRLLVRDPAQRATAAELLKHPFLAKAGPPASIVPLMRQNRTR

- inhibition at 10 µM [1]: 96.8%
- inhibition at 10 µM [3]: 97.3%
Compound: CS(=O)(=O)Nc1ccccc1Nc1nc(Nc2cccc(OCCN)c2)ncc1Cl [CZC31326, N-(2-(2-(3-(2-aminoethoxy)phenylamino)-5-chloropyrimidin-4-ylamino)phenyl)methanesulfonamide]
- inhibition at 10 µM [2]: 92.4%
